In US20070004623A1, “Use of hydroxylated amino acids for treating diabetes” (Innodia Inc., priority 2003, published 2007):

Legend:
Format in all cases: cell-based
INS-1 cells [1] = experiment: glucose-dependent insulin secretion in INS-1 cells, ID 1101 with Glibenclamide; details: 4.5 mM glucose, 1 hour
Description: The optical isomer 2S,3R,4S of 4-hydroxyisoleucine (ID 1101) was tested in a blinded manner, alone and in combination with Glibenclamide, to determine the insulinotropic effect on INS-1 cells. Briefly, the cells were plated at a density of 2×10^5 in 12 well plates and incubated for 2 days in RPMI with 10% fetal calf serum and 11 mM glucose. The medium was removed on the third day post-plating and replaced with RPMI containing 3 mM glucose with 10% fetal calf serum. The cells were incubated for an additional 24 hours. On the fourth day post-plating, the medium was removed and replaced with Krebs-Ringers bicarbonate buffer containing 2 mM glucose. The cells were incubated for 30 minutes. The buffer was removed and replaced with Krebs-Ringers bicarbonate buffer with 4.5 mM glucose, containing ID 1101 at 0.1 mM, Glibenclamide alone at 10-10 mM or 10^−11 mM, or a combination of the 2 compounds. The cells were incubated for 1 hour. Basal insulin secretion was determined by incubating the cells in the presence of buffer with 2 mM glucose. The presence of glucose at 4.5 mM stimulated insulin secretion and served as the positive control.

INS-1 cells [2] = experiment: glucose-dependent insulin secretion in INS-1 cells, ID 1101 with Exendin-4; details: 4.5 mM glucose, 1 hour
Description: The optical isomer 2S,3R,4S of 4-hydroxyisoleucine (ID 1101) was tested alone and in combination with Exendin-4, to determine the insulinotropic effect on INS-1 cells. Briefly, the cells were plated at a density of 2×10^5 in 12 well plates and incubated for 2 days in RPMI with 10% fetal calf serum and 11 mM glucose. The medium was removed on the third day post-plating and replaced with RPMI containing 3 mM glucose with 10% fetal calf serum. The cells were incubated for an additional 24 hours. On the fourth day post-plating, the medium was removed and replaced with Krebs-Ringers bicarbonate buffer containing 2 mM glucose. The cells were incubated for 30 ninutes. The buffer was removed and replaced with Krebs-Ringers bicarbonate buffer with 4.5 mM glucose, containing ID 1101 at 0.01 or 0.05 mM, Exendin-4 alone at 10^−9 mM or 10^−10 mM, or a combination of the 2 compounds. The cells were incubated for 1 hour. Basal insulin secretion was determined by incubating the cells in the presence of buffer with 2 mM glucose. The effect of glucose at 4.5 mM served as the control.

[3] = test system: differentiated 3T3-L1 adipocyte cells; experiment: uptake of 3H-deoxy-glucose by differentiated 3T3-L1 adipocyte cells; details: last 30 minutes of 5 hour starvation, control cells 2 pmol/mg/minute
Description: Briefly, 3T3-L1 adipocyte cells (ATCC; Cl-173) were cultured in 12 well tissue culture plates for 3 days in order to reach confluence ([…] al., “Analysis of insulin-stimulated glucose uptake in differentiated 3T3-L1 adipocytes,” Diabetes Mellitus: Methods and Protocols, ([…]., 2003, pages 97-103). The culture medium was removed and replaced with differentiation-medium (Green et al., Cell 3:127-133, 1974; Madsen et al., Biochem. J. 375:539-549, 2003), and then the cells were incubated for an additional 9 days. The state of differentiation was confirmed by visual examination. Cell starvation was conducted for 5 hours by replacing the differentiation medium with medium lacking fetal calf serurn. During the starvation period, the cells were exposed ID 1101 (0.5 or 1.0 mM), for 0.5, 1, 2, 4, or 5 hours. The cells were exposed to insulin (0.0167 U/ml; Sigma; Cat. No. 15534) for the last 0.5 hour of the starvation period, either alone or in combination ID 1101. The cells were washed, and then fresh medium containing 16 μM ^3H-Deoxy-D-glucose (0.5 μCi/ml) and 10 μM 2-Deoxy-D-glucose was added and the cells were incubated for 10 minutes. Glucose uptake was stopped by washing the cells with ice cold PBS. The cells were lysed and specific activity in the lysate was determined relative to background uptake of ^3H-deoxy-glucose. […]

Question: With `COc1ccc(Cl)cc1C(=O)NCCc1ccc(S(=O)(=O)NC(=O)NC2CCCCC2)cc1` [Glibenclamide] as the molecule, how does the insulin secretion (INS-1 cells [1]; Glibenclamide 10^−10 mM) read?
Answer: showed a stimulatory effect

Question: What about the insulin secretion (INS-1 cells [1]; Glibenclamide 10^−11 mM) of the same molecule?
Answer: not

Question: Which results are given for `C[C@@H]([C@H](C)O)[C@H](N)C(=O)O` [ID 1101, 4-hydroxyisoleucine]?
Answer: insulin secretion (INS-1 cells [2]; ID 1101 0.01 or 0.05 mM): stimulated insulin secretion above background levels; insulin secretion (INS-1 cells [1]; ID 1101 0.1 mM): stimulated insulin secretion above background levels; stimulation of glucose uptake above the background level ([3]; ID 1101 0.5 or 1.0 mM as sole treatment): approximately 5 pmol/mg/minute

Question: Exendin-4 [reference compound] was tested. Which insulin secretion (INS-1 cells [2]; Exendin-4 10^−9 and 10^−10 mM) did it give?
Answer: did not show a stimulatory effect

Question: For insulin, which “stimulation of glucose uptake above the background level” value ([3]; insulin 0.0167 U/ml as sole treatment) is on record?
Answer: approximately 5 pmol/mg/minute
